Experiments:
[1] = log P by reversed-phase HPLC (C 18), acidic range; assay type: physicochemical; conditions: marked a): acidic range
Protocol: Temperature: 43° C. (a) Mobile phases for the determination in the acidic range: 0.1% aqueous phosphoric acid, acetonitrile; linear gradient from 10% acetonitrile to 90% acetonitrile—the corresponding measurement results are marked ^a) in Table 1.

[2] = tested on: weeds; assay: Pre-emergence test, activity against weeds; assay type: in vivo; conditions: soil sprayed 24 hours after sowing, rated after three weeks
Text: Solvent: 5 parts by weight of acetone
Seeds of the test plants are sown in normal soil.

[3] = 0.1% aqueous phosphoric acid, acetonitrile, HPLC reversed-phase column (C 18), 43° C.
[4] = 0.1% aqueous phosphoric acid/acetonitrile gradient, HPLC C 18, 43° C.

| Compound | logP [1, 4] | further results |
| --- | --- | --- |
| CON(C)C(=O)Nc1c(Cl)ccc(C(=O)C2=C(O)CC(C)CC2=O)c1Cl (racemic) [Example 3-1] | – | logP [1, 3]: (I-2) logP = 2.33^a) |
| CC1CC(=O)C(C(=O)c2ccc(Cl)c(NC(=O)N3CCCO3)c2Cl)=C(O)C1 (racemic) [Example 3-61] | – | logP [1, 3]: (I-2) logP = 2.25^a) |
| CC1CC(=O)C(C(=O)c2ccc(Cl)c(NC(=O)N3CCCCO3)c2Cl)=C(O)C1 (racemic) [Example 3-69] | – | logP [1, 3]: (I-2) logP = 2.52^a) |
| CN1CCCN(C(=O)Nc2c(Cl)ccc(C(=O)C3=C(O)CCCC3=O)c2Cl)C1=O [Example 1-4] | (I-2) logP = 2.33^a) | activity against weeds [2]: strong activity |
| O=C1CCCC(O)=C1C(=O)c1ccc(Cl)c(NC(=O)N2CCOCC2)c1Cl [Example 1-5] | (I-2) logP = 1.60^a) | activity against weeds [2]: strong activity |
| O=C1CCCC(O)=C1C(=O)c1ccc(Cl)c(NC(=O)N2CCCC2)c1Cl [Example 1-16] | (I-2) logP = 1.90^a) | – |
| CCN1CCCN(C(=O)Nc2c(Cl)ccc(C(=O)C3=C(O)CCCC3=O)c2Cl)C1=O [Example 1-23] | (I-2) logP = 2.65^a) | – |
| CC(C)N1CCCN(C(=O)Nc2c(Cl)ccc(C(=O)C3=C(O)CCCC3=O)c2Cl)C1=O [Example 1-25] | (I-2) logP = 2.98^a) | – |
| O=C(NCC1CCCO1)Nc1c(Cl)ccc(C(=O)C2=C(O)CCCC2=O)c1Cl (centres unmarked) [Example 1-33] | (I-2) logP = 1.81^a) | – |
| O=C(Nc1nnc(C(F)(F)F)s1)Nc1c(Cl)ccc(C(=O)C2=C(O)CCCC2=O)c1Cl [Example 1-40] | (I-2) logP = 2.78^a) | – |
| CN1CCN(C(=O)Nc2cc(C(F)(F)F)ccc2C(=O)C2=C(O)CCCC2=O)C1=O [Example 1-100] | (I-1) logP = 2.57^a) | – |
| O=C(Nc1c(Cl)ccc(C(=O)C2=C(O)CCCC2=O)c1Cl)NN1CCCC1 [Example 1-101] | (I-2) logP = 1.94^a) | – |
| O=C1CCCC(O)=C1C(=O)c1ccc(Cl)c(NC(=O)N2CCCN(C3CCCCC3)C2=O)c1Cl [Example 1-103] | (I-2) logP = 3.86^a) | – |
| CN1CCN(C(=O)N(C)c2cc(C(F)(F)F)ccc2C(=O)C2=C(O)CCCC2=O)C1=O [Example 1-104] | (I-1) logP = 2.04^a) | – |
| O=C1CCCC(O)=C1C(=O)c1ccc(Cl)c(NC(=O)N2CCCCC2)c1Cl [Example 1-105] | (I-2) logP = 2.26^a) | – |
| COc1cc(NC(=O)N2CCN(C)C2=O)ccc1C(=O)C1=C(O)CCCC1=O [Example 1-110] | (I-3) logP = 1.93^a) | – |
| O=C1CCCC(O)=C1C(=O)c1ccc(Cl)c(NC(=O)c2cccs2)c1Cl [Example 1-111] | (I-2) logP = 2.34^a) | – |
| O=C(NCc1ccccc1)Nc1c(Cl)ccc(C(=O)C2=C(O)CCCC2=O)c1Cl [Example 1-142] | (I-2) logP = 2.37^a) | – |
| O=C1CCCC(O)=C1C(=O)c1ccc(Cl)c(NC(=O)c2ccc(Cl)cc2)c1Cl [Example 1-150] | (I-2) logP = 2.96^a) | – |

| Compound | logP [1, 4] | further results |
| --- | --- | --- |
| O=C(Nc1c(Cl)ccc(C(=O)C2=C(O)CCCC2=O)c1Cl)NN1CCCCC1 [Example 1-160] | (I-2) logP = 2.52^a) | – |
| CON(C)C(=O)Nc1c(Cl)ccc(C(=O)C2=C(Sc3ccccc3)CCCC2=O)c1Cl [Example 1-161] | (I-2) Y = SC6H5 logP = 2.98^a) | – |
| Cn1ccsc1=NC(=O)Nc1c(Cl)ccc(C(=O)C2=C(O)CCCC2=O)c1Cl [Example 1-162] | (I-2) logP = 1.96^a) | – |
| O=C1CCCC(O)=C1C(=O)c1ccc(Cl)c(NC(=O)N2CCCCO2)c1Cl [Example 1-164] | (I-2) logP = 2.17^a) | – |
| CON(C)C(=O)Nc1c(Cl)ccc(C(=O)C2=C(O)C(C)(C)CCC2=O)c1Cl [Example 2-1] | – | logP [1, 3]: (I-2) logP = 2.61^a) |
| CC1(C)CCC(=O)C(C(=O)c2ccc(Cl)c(NC(=O)N3CCCO3)c2Cl)=C1O [Example 2-61] | – | logP [1, 3]: (I-2) logP = 2.57^a) |
| CC1(C)CCC(=O)C(C(=O)c2ccc(Cl)c(NC(=O)N3CCCCO3)c2Cl)=C1O [Example 2-69] | – | logP [1, 3]: (I-2) logP = 2.83^a) |
| CON(C)C(=O)Nc1c(Cl)ccc(C(=O)C2=C(O)CC(C)(C)CC2=O)c1Cl [Example 4-1] | – | logP [1, 3]: (I-2) logP = 2.54^a) |
| CC1(C)CC(=O)C(C(=O)c2ccc(Cl)c(NC(=O)N3CCCCO3)c2Cl)=C(O)C1 [Example 4-69] | – | logP [1, 3]: (I-2) logP = 2.76^a) |
| CON(C)C(=O)Nc1c(Cl)ccc(C(=O)C2=C(O)C3CCC(C3)C2=O)c1Cl (centres unmarked) [Example 5-1] | – | logP ([1]; 0.1% aqueous phosphoric acid/acetonitrile gradient, reversed-phase HPLC C 18, 43° C.): (I-2) logP = 2.23^a) |
| COC(=O)c1ccc(Cl)c(NC(=O)N2CCOCC2)c1Cl [IIIa-6] | logP = 1.34^a) | – |
| COC(=O)c1ccc(Cl)c(NC(=O)NN(C)C)c1Cl [IIIa-7] | logP = 1.64^a) | – |
| COC(=O)c1ccc(Cl)c(NC(=O)N2CCN(C)CC2)c1Cl [IIIa-8] | logP = 0.50^a) | – |
| CCN(CC)C(=O)Nc1c(Cl)ccc(C(=O)OC)c1Cl [IIIa-9] | logP = 2.02^a) | – |
| COC(=O)c1ccc(C(F)(F)F)cc1NC(=O)N(C)OC [IIIa-10] | logP = 3.35^a) | – |
| COC(=O)c1ccc(C(F)(F)F)cc1NC(=O)N1CCN(C)C1=O [IIIa-11] | logP = 2.76^a) | – |
| CCN(CC)C(=O)Nc1cc(C(F)(F)F)ccc1C(=O)OC [IIIa-17] | logP = 3.10^a) | – |
| COC(=O)c1ccc(Cl)c(NC(=O)N2CCCN(CC(C)C)C2=O)c1Cl [IIIa-21] | logP = 3.43^a) | – |
| COC(=O)c1ccc(Cl)c(NC(=O)Nn2cnnc2)c1Cl [IIIa-25] | logP = 0.93^a) | – |

More lines, main results first:

| logP [1, 4] | Compound | further results |
| --- | --- | --- |
| (I-2) logP = 2.33^a) | CCN1CCN(C(=O)Nc2c(Cl)ccc(C(=O)C3=C(O)CCCC3=O)c2Cl)C1=O [Example 1-2] | activity against weeds [2]: strong activity |
| (I-2) logP = 1.97^a) | CON(C)C(=O)Nc1c(Cl)ccc(C(=O)C2=C(O)CCCC2=O)c1Cl [Example 1-3] | activity against weeds [2]: strong activity |
| (I-2) logP = 1.81^a) | CN(C)NC(=O)Nc1c(Cl)ccc(C(=O)C2=C(O)CCCC2=O)c1Cl [Example 1-6] | activity against weeds [2]: strong activity |
| (I-2) logP = 2.21^a) | CCN(CC)C(=O)Nc1c(Cl)ccc(C(=O)C2=C(O)CCCC2=O)c1Cl [Example 1-7] | – |
| (I-2) logP = 1.46^a) | CNC(=O)Nc1c(Cl)ccc(C(=O)C2=C(O)CCCC2=O)c1Cl [Example 1-8] | – |
| (I-2) logP = 1.70^a) | CCNC(=O)Nc1c(Cl)ccc(C(=O)C2=C(O)CCCC2=O)c1Cl [Example 1-9] | – |
| (I-2) logP = 1.64^a) | CN(C)C(=O)Nc1c(Cl)ccc(C(=O)C2=C(O)CCCC2=O)c1Cl [Example 1-10] | – |
| (I-2) logP = 1.99^a) | CC(C)NC(=O)Nc1c(Cl)ccc(C(=O)C2=C(O)CCCC2=O)c1Cl [Example 1-12] | – |
| (I-2) logP = 1.77^a) | O=C(Nc1c(Cl)ccc(C(=O)C2=C(O)CCCC2=O)c1Cl)NC1CC1 [Example 1-13] | – |
| (I-2) logP = 1.72^a) | COC(CNC(=O)Nc1c(Cl)ccc(C(=O)C2=C(O)CCCC2=O)c1Cl)OC [Example 1-35] | – |
| (I-2) logP = 1.29^a) | NC(=O)Nc1c(Cl)ccc(C(=O)C2=C(O)CCCC2=O)c1Cl [Example 1-106] | – |
| (I-2) logP = 1.98^a) | CCCNC(=O)Nc1c(Cl)ccc(C(=O)C2=C(O)CCCC2=O)c1Cl [Example 1-107] | – |
| (I-2) logP = 1.58^a) | CONC(=O)Nc1c(Cl)ccc(C(=O)C2=C(O)CCCC2=O)c1Cl [Example 1-108] | – |
| (I-2) logP = 2.95^a) | CCCN(CCC)C(=O)Nc1c(Cl)ccc(C(=O)C2=C(O)CCCC2=O)c1Cl [Example 1-109] | – |
| (I-2) logP = 2.04^a) | COCCN(C)C(=O)Nc1c(Cl)ccc(C(=O)C2=C(O)CCCC2=O)c1Cl [Example 1-132] | – |
| (I-2) logP = 2.40^a) | COCCN(CCOC)C(=O)Nc1c(Cl)ccc(C(=O)C2=C(O)CCCC2=O)c1Cl [Example 1-134] | – |

| logP [1, 4] | Compound | further results |
| --- | --- | --- |
| (I-2) logP = 1.88^a) | CCONC(=O)Nc1c(Cl)ccc(C(=O)C2=C(O)CCCC2=O)c1Cl [Example 1-136] | – |
| (I-2) logP = 2.02^a) | O=C1CCCC(O)=C1C(=O)c1ccc(Cl)c(NC(=O)C2=NOCC2)c1Cl [Example 1-145] | – |
| (I-2) logP = 2.08^a) | O=C1CCCC(O)=C1C(=O)c1ccc(Cl)c(NC(=O)c2ccco2)c1Cl [Example 1-147] | – |
| (I-2) logP = 1.93^a) | O=C1CCCC(O)=C1C(=O)c1ccc(Cl)c(NC(=O)N2CCCO2)c1Cl [Example 1-151] | – |
| (I-2) logP = 2.28^a) | CON(C)C(=S)Nc1c(Cl)ccc(C(=O)C2=C(O)CCCC2=O)c1Cl [Example 1-159] | – |
| (I-2) logP = 2.22^a) | CCn1ccsc1=NC(=O)Nc1c(Cl)ccc(C(=O)C2=C(O)CCCC2=O)c1Cl [Example 1-163] | – |
| (I-2) logP = 2.56^a) | CCCN(CC)C(=O)Nc1c(Cl)ccc(C(=O)C2=C(O)CCCC2=O)c1Cl [Example 1-165] | – |
| (I-2) logP = 2.17^a) | CC(C)N(C)C(=O)Nc1c(Cl)ccc(C(=O)C2=C(O)CCCC2=O)c1Cl [Example 1-166] | – |
| (I-2) logP = 2.30^a) | CCON(C)C(=O)Nc1c(Cl)ccc(C(=O)C2=C(O)CCCC2=O)c1Cl [Example 1-167] | – |
| (I-2) logP = 2.41^a) | CC(C)(C)NC(=O)Nc1c(Cl)ccc(C(=O)C2=C(O)CCCC2=O)c1Cl [Example 1-168] | – |
| (I-2) logP = 2.49^a) | CCN(C(=O)Nc1c(Cl)ccc(C(=O)C2=C(O)CCCC2=O)c1Cl)C(C)C [Example 1-169] | – |
| (I-2) logP = 1.91^a) | CCN(C)C(=O)Nc1c(Cl)ccc(C(=O)C2=C(O)CCCC2=O)c1Cl [Example 1-170] | – |
| (I-2) logP = 2.05^a) | O=C(NCC1CC1)Nc1c(Cl)ccc(C(=O)C2=C(O)CCCC2=O)c1Cl [Example 1-171] | – |
| (I-2) logP = 1.72^a) | COCCCNC(=O)Nc1c(Cl)ccc(C(=O)C2=C(O)CCCC2=O)c1Cl [Example 1-172] | – |
| (I-2) logP = 2.22^a) | CCCN(C)C(=O)Nc1c(Cl)ccc(C(=O)C2=C(O)CCCC2=O)c1Cl [Example 1-173] | – |

Source: patent US7670991B2, “Substituted benzoylcyclohexenones and their use as herbicidal agents” (Bayer CropScience AG, priority 2001, dated 2010)
